From patent US20210009627A1, “CYCLIC DINUCLEOTIDE COMPOUNDS CONTAINING 2-AZA-HYPOXANTHINE OR 6H-PYTAZOLO[1,5-D][1,2,4]TRIZAIN-7-ONE AS STRING AGONISTS” (BOEHRINGER INGELHEIM INTERNATIONAL GMBH, priority 2018, published 2021)
Counter-ions that a name gives are not always drawn.

What was measured:
[1] = target: T1, hSTING HAQ (Homo sapiens, UniProt Q86WV6, G230A/H232R/R293Q/R71H); test: THP1-Blue ISG hSTING KO reporter cells expressing hSTING HAQ variant; format: cell-based; conditions: HAQ variant cell line
T1 construct: expressed in transfected cells; host or cells: THP1-Blue ISG hSTING KO clone, retroviral MSCV-ires-GFP-Blasti
T1 sequence (Q86WV6 whole entry R71H/G230A/H232R/R293Q): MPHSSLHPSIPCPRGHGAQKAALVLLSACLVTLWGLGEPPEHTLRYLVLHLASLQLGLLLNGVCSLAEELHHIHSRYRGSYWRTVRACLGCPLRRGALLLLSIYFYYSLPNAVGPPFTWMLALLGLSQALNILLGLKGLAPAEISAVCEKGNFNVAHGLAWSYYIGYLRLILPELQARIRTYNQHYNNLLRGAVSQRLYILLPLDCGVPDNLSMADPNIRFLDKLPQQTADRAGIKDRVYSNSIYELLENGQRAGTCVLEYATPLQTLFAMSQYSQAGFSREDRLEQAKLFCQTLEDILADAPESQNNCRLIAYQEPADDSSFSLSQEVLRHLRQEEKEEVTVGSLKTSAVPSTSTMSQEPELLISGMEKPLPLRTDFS
Excerpt: (§1) Several single nucleotide polymorphisms have been identified in the human STING gene that may affect the response to cyclic dinucleotides. To determine the activity of compounds of the invention, THP1-Blue ISG reporter cell lines expressing the different human STING variants have been generated. To do so, the endogenous human STING was first deleted using the CRISPR/CAS9 system: THP1-Blue ISG cells were electroporated with ALL-IN-ONE CRISPR plasmids targeting the STING gene (purchased from Sigma encoding the gRNA and GFP as a reporter gene for successful transduction). GFP positive cells then were sorted 24 h post transfection and expanded. Cells were then dispersed in semisolid methocel medium to allow single cell clone isolations. Clones were then screened for cGAMP responsiveness using the Quanti-blue reporter assay. Non-responsive clones were subsequently analysed for STING loss by western blotting and sequencing of the STING locus.
(§2) For the overexpression of the human STING variants, a confirmed THP1-Blue ISG hSTING KO clone was transduced with individual retroviral plasmids (MSCV-ires-GFP-Blasti) encoding the allelic variants of hSTING (WT, HAQ, R232H, AQ and R293Q), respectively. Transduced cells were sorted for different levels of GFP fluorescence and STING allele expression was analysed by western blot.

[2] = target: Human STING (hSTING, residues 155-341, wild-type sequence) (Homo sapiens, UniProt Q86WV6, H232R); test: hSTING binding by differential scanning fluorimetry (DSF); conditions: 100 μM test compound, 3 μM target protein, thermal shift, at least two measurements averaged; read-out: hSTING Tm shift
Human STING (hSTING, residues 155-341, wild-type sequence), sequence (Q86WV6 155-341 H232R): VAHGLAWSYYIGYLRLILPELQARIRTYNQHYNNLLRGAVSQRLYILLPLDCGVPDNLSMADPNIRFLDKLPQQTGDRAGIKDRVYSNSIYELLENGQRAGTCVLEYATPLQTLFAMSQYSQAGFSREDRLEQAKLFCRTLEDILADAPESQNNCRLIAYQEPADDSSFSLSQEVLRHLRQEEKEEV
Procedure: 3) 2 μl of this protein-dye-mixture (25× SYPRO Orange and 15 μM Protein) was added to 8 μl compound solution. Final volume was 10 μL. 4) Certain well positions were used as negative control. 5) The plates were prepared for duplicate measurement and centrifuged for 2 min at 1000 g. 6) In the measurement, 160 cycles of 0.5° C. were used (temperature ramp 15 s/cycle, 15° C. to 95° C.). Data analysis: The dissociation curves were processed in Bio-Rad CFX Manager. Peak type was set to “negative”. At least two measurements were averaged.

[3] = target: T2, hSTING WT (Homo sapiens, UniProt Q86WV6, H232R); test: THP1-Blue ISG hSTING KO reporter cells expressing hSTING WT variant; format: cell-based; conditions: WT variant cell line
T2 construct: expressed in transfected cells; host or cells: THP1-Blue ISG hSTING KO clone, retroviral MSCV-ires-GFP-Blasti
T2 sequence (Q86WV6 whole entry H232R): as the sequence (Q86WV6 whole entry R71H/G230A/H232R/R293Q) above, with H71R, A230G, Q293R counted along it
Excerpt: as §1, §2

[4] = target: T3, hSTING AQ (Homo sapiens, UniProt Q86WV6, G230A/H232R/R293Q); test: THP1-Blue ISG hSTING KO reporter cells expressing hSTING AQ variant; format: cell-based; conditions: AQ variant cell line
T3 construct: expressed in transfected cells; host or cells: THP1-Blue ISG hSTING KO clone, retroviral MSCV-ires-GFP-Blasti
T3 sequence (Q86WV6 whole entry G230A/H232R/R293Q): as the sequence (Q86WV6 whole entry R71H/G230A/H232R/R293Q) above, with H71R counted along it
Excerpt: as §1, §2

[5] = target: T4, hSTING R293Q (Homo sapiens, UniProt Q86WV6, H232R/R293Q); test: THP1-Blue ISG hSTING KO reporter cells expressing hSTING R293Q variant; format: cell-based; conditions: R293Q variant cell line
T4 construct: expressed in transfected cells; host or cells: THP1-Blue ISG hSTING KO clone, retroviral MSCV-ires-GFP-Blasti
T4 sequence (Q86WV6 whole entry H232R/R293Q): as the sequence (Q86WV6 whole entry R71H/G230A/H232R/R293Q) above, with H71R, A230G counted along it
Excerpt: as §1, §2

[6] = target: T5, hSTING R232H (Homo sapiens, UniProt Q86WV6); test: THP1-Blue ISG hSTING KO reporter cells expressing hSTING R232H variant; format: cell-based; conditions: R232H variant cell line
T5 construct: expressed in transfected cells; host or cells: THP1-Blue ISG hSTING KO clone, retroviral MSCV-ires-GFP-Blasti
T5 sequence (Q86WV6 whole entry, stated change not applied): as the sequence (Q86WV6 whole entry R71H/G230A/H232R/R293Q) above, with H71R, A230G, R232H, Q293R counted along it
Excerpt: as §1, §2

[7] = target: T6, human STING protein in THP1-Blue ISG cells (Homo sapiens, UniProt Q86WV6, G230A/H232R/R293Q/R71H); test: In vitro cytokine induction, THP1-Blue ISG reporter cell assay (IRF-inducible SEAP); format: cell-based; conditions: 24 hours incubation, SEAP OD at 620 nm
T6 construct: host or cells: THP1-Blue ISG cells
T6 sequence (Q86WV6 whole entry R71H/G230A/H232R/R293Q): as the sequence (Q86WV6 whole entry R71H/G230A/H232R/R293Q) above
Excerpt: In Vitro Cytokine Induction
Activation of the STING protein expressed in THP1 cells results in an increase of interferon production. By the stable integration of an interferon regulatory factor (IRF)-inducible SEAP (secreted embryonic alkaline phosphatase) reporter construct the functional interferon signaling pathway can be monitored. Using Invivogen's QUANTI-Blue™ colorimetric enzyme assay and a suitable optical density (OD) reader the activity of SEAP can be detected and quantified. This technique could be used to characterize pharmacological modification of the STING protein. Measurements of SEAP activity were performed in THP1-Blue™ ISG cells stably expressing the human STING protein and the IRF-inducible SEAP reporter construct. Cells were cultivated for expansion in RPMI1640 medium with 10% fetal calf serum, 50 μg/ml Penicillin-Streptomycin, 100 μg/ml Zeocin, and 100 μg/ml Normocin in a 37°, 95% humidity and 5% CO2 incubator. Assay-ready cells were stored as frozen stocks.
In preparation for the assay, the cells were thawed in Zeocin-/Normocin-free medium and were distributed into the assay plates with a density of 15000 cells/15 μL per well. […]
At the day of the assay, 75 μl per well of Quanti-Blue reagent was added to all wells of the plate and the plate was incubated another 30 minutes at 37° C. The OD at 620 nm was measured on the EnVision reader (PerkinElmer). […]

EC50 [1] | ΔTm at 100 µM [2] | EC50 [3] | EC50 [4] | EC50 [5] | EC50 [6] | EC50 [7] | SMILES
510 µM | 23.9 °C | 510 µM | 510 µM | 510 µM | 510 µM | 0.16 µM | Nc1ncnc2c1ncn2[C@@H]1O[C@@H]2COP(=O)(S)O[C@@H]3[C@H](O)[C@@H](COP(=O)(S)O[C@H]2[C@H]1F)O[C@H]3n1cnc2c(=O)[nH]nnc21 (single isomer, unassigned) [Example 1.1, Cyclic 2-azainosine-(2′→5′)-phosphorothioate-2′-F-2′-deoxyadenosine-(3′→5′)-phosphoro-thioate sodium salt]
 | 17.9 °C |  |  |  |  | 0.14 µM | Nc1ncnc2c1ncn2[C@@H]1O[C@@H]2COP(=O)(S)O[C@@H]3[C@H](O)[C@@H](COP(=O)(S)O[C@H]2[C@H]1F)O[C@H]3c1cnn2c(=O)[nH]ncc12 (single isomer, unassigned) [Example 2.1, Cyclic 8-δ-D-ribofuranosyl-pyrazolo[1,5-d]-1,2,4-triazin-4(3H)-one-(2′→5′)-phosphorothioate-2′-F-2′-deoxyadenosine-(3′→5′)-phosphorothioate sodium salt]
